Measured values reported in patent US5314880A, “Benzimidazole derivatives” (British Bio-technology Limited, priority 1989, dated 1994).

target: T1, PAF receptor (human platelet plasma membrane) (Homo sapiens, UniProt P25105); assay: Inhibition of ^3 H-PAF receptor binding to human platelet plasma membrane; conditions: ^3 H-PAF 0.5 nM, 0° C., 1 hour
T1 construct: Platelet concentrates were obtained from a hospital blood bank; from tissue; host or cells: human platelets (hospital blood bank concentrates), lysed platelet membranes
Description: Compounds of general formula I inhibit PAF induced functions in both the cellular and tissue levels by changing the PAF binding to its specific receptor site. The ability of compounds of general formula I to inhibit platelet aggregation in human platelet-rich plasma, and to inhibit the binding of PAF to its specific receptor binding site on human platelet plasma membranes was measured in the assay described in the pharmacology example.
The inhibition of ^3 H-PAF binding to human platelet plasma membrane by compounds of general formula I was determined by isotopic labelling and filtration techniques. Platelet concentrates were obtained from a hospital blood bank. These platelet concentrates (500-2500 ml.) were centrifuged at 800 rpm for 10 minutes in a SORVALL RC3B centrifuge to remove the red blood cells present. (The word SORVALL is a trade mark.) The supernatant was subsequently centrifuged at 3,000 rpm in a SORVALL RC3B centrifuge to pellet the platelets present. The platelet rich pellets were resuspended in a minimum volume of buffer (150 Mm NaCl, 10 mM Tris, 2 mM EDTA, pH 7.5) and layered onto Ficoll-Paque gradients, 9 ml platelet concentrate to 2 ml Ficoll, and centrifuged at 1,900 rpm for 15 minutes in a SORVALL RT6000 centrifuge. This step removes the residual red blood cells and other nonspecific material such as lymphocytes from the preparation. The platelets which form a band between the plasma and the Ficoll were removed, resuspended in the above buffer and centrifuged at 3,000 rpm for 10 minutes in a SORVALL RT6000 centrifuge. The pelleted platelets were resuspended in buffer (10 mM Tris, 5 mM MgCl2, 2 mM EDTA, pH 7.0), snap-freezed in liquid N2 and allowed to thaw slowly at room temperature in order to lyse the platelets. The latter step was repeated at least 3 times to ensure proper lysis. The lysed platelets were centrifuged at 3,000 rpm for 10 minutes in a SORVALL RT6000 centrifuge and resuspended in buffer. The latter step was reseated twice in order to remove any cytoplasmic proteins which may hydrolyse the platelet activating factor (PAF) receptor. The prepared platelet membranes may be stored at -70° C. After thawing the prepared membranes were centrifuged in a SORVALL RT6000 at 3,000 rpm for 10 minutes and resuspended in assay buffer.
The assay was conducted by preparing a series of a Tris-buffered solutions of the selected antagonist of predetermined concentrations. Each of these solutions contained ^3 H-PAF (0.5 nM; 1-O-(^3 H]octadecyl-2-acetyl-sn-glycero-3-phosphoryl choline with a specific activity of 132 Ci/mmol), […], a known amount of the test antagonist, and a sufficient amount of Tris-buffer solution (10 mM Tris, 5 mM MgCl2, pH 7.0, 0.25% BSA) to make the final volume 1 ml. Incubation was initiated by the addition of 100 μg of the isolated membrane fraction to each of the above solutions at 0° C. Two control samples, one which ([…]) contained all the ingredients described above except the antagonist and the other (C2) contains C1 plus a 1000-fold excess of unlabelled PAF, were also prepared and incubated simultaneously with the test samples. After 1 hour incubation, each solution was filtered rapidly under vacuo through a WHATMAN GF/C glass fiber falter in order to separate unbound PAF from bound PAF. (The word WHATMAN is a trade mark.) The residue in each case was rapidly washed 4 times with 5 ml cold (4° C.) Tris-buffer solution. Each washed residue was dried under vacuum on a sampling manifold and placed into vials containing 20 ml of OPTIPHASE MP scintillation fluid and the radioactivity counted in a liquid scintillation counter. (The word OPTIPHASE is a trade mark.) Defining the counts for total binding with antagonist from a test sample as "TBA"; the counts for total binding from the control sample C1 as "TB"; and the counts for nonspecific binding from the control sample C2 as "NSB", the percent inhibition of each test antagonist can be determined by the following equation. […]

T1 sequence (P25105 whole entry): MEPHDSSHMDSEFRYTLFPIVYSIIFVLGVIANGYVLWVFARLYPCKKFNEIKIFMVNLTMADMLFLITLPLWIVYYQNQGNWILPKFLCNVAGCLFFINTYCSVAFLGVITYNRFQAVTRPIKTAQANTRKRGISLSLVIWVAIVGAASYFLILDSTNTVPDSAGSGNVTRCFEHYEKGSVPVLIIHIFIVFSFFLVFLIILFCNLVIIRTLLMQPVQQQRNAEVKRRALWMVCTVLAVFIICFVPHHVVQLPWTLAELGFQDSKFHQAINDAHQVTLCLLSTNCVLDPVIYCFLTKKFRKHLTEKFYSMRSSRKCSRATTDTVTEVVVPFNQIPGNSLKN

SMILES | IC50
Cc1nc2ccccc2n1Cc1ccc(N(C)P(=O)(c2ccccc2)c2ccccc2)cc1 [Example 59] | 500 nM
Cc1nc2cc([N+](=O)[O-])ccc2n1Cc1ccc(S(=O)(=O)N(C)C2CCCCC2)cc1 [Example 44, N-Cyclohexyl-N-methyl 4-(1H-2-methyl-5-nitrobenzimidazylmethyl) benzenesulphonamide] | 5000 nM
CSC(c1ccc(C(=O)N(C)C2CCCCC2)cc1)n1cnc2ccccc21 (stereo not drawn) [Example 63, N-Cyclohexyl-N-methyl 4-(1H-benzimidazylthiomethylmethyl) benzamide] | 500 nM
Cc1nc2ccccc2n1Cc1ccc(NC(=O)C2CCCCC2)cc1 [Example 58, N-4-(1H-2-Methylbenzimidazylmethyl)benzyl cyclohexylamide] | 2000 nM
Cc1nc2ccccc2n1Cc1ccc(S(=O)(=O)N2CCC[C@H]3CCCC[C@@H]32)cc1 (relative stereo) [Example 92, trans-Decahydroquinolinyl 4-(1H-2-methylbenzimidazylmethyl) benzenesulphonamide] | 700 nM
Cc1nc2ccccc2n1Cc1ccc(S(=O)(=O)NCc2ccccc2Cl)cc1 [Example 80, N-2-Chlorobenzyl 4-(1H-2-methylbenzimidazylmethyl) benzenesulphonamide] | 900 nM
CCN(C(=O)c1ccc(Cn2c(C)nc3ccccc32)cc1)C1CCCCC1 [Example 21, N-Cyclohexyl-N-ethyl 4-(1H-2-methylbenzimidazylmethyl)benzamide] | 500 nM
CSc1nc2ccccc2n1Cc1ccc(C(=O)N(C)C2CCCCC2)cc1 [Example 26, N-Cyclohexyl-N-methyl 4-(1H-2-thiomethylbenzimidazylmethyl) benzamide] | 3000 nM
Cc1nc2ccccc2n1Cc1ccc(C(=O)N(C2CCCCC2)C2CCCCC2)cc1 [Example 22, N,N-Dicyclohexyl 4-(1H-2-methylbenzimidazylmethyl)benzamide] | 650 nM
Cc1nc2ccccc2n1Cc1ccc(S(=O)(=O)N2CCCCC2)cc1 [Example 50, Piperidinyl 4-(1H-2-methylbenzimidazylmethyl)benzenesulphonamide] | 2000 nM
Cc1nc2ccccc2n1Cc1ccc(S(=O)(=O)N(C)C2CCCCC2)cc1 [Example 41, N-Cyclohexyl-N-methyl 4-(1H-2-methylbenzimidazylmethyl) benzenesulphonamide] | 300 nM
CCN(C1CCCCC1)S(=O)(=O)c1ccc(Cn2c(C)nc3ccccc32)cc1 [Example 49, N-Cyclohexyl-N-ethyl 4-(1H-2-(2-methyl)benzimidazylmethyl) benzenesulphonamide] | 500 nM
